Assay [1] relates to Spodoptera exigua. Description: Insecticidal activity against Spodoptera exigua assessed as increase of larval mortality at 5 umol/g in artificial diet after 9 days relative to control. It counts as functional.
The subject of assay [2] is Spodoptera exigua. As to the kind of experiment: Insecticidal activity against Spodoptera exigua assessed as reduction of weight at 5 umol/g in artificial diet after 9 days relative to control. The class given is functional, organism-based.
For assay [3], the system named is Spodoptera exigua. As to the kind of experiment: Insecticidal activity against Spodoptera exigua. It counts as functional.

The source made the active and inactive calls. No cut-off for these calls is given here.

The values that follow come from ChEMBL document CHEMBL1158006, “Alkylfurans: effects of alkyl side-chain length on insecticidal activity” (1999).

For `CCCCCCCCCCCCCCc1ccco1`, the Activity in assay [1] is listed as less than 50%. In assay [2], the outcome was Active.

With `CCCCCCCCCCCCCCCCCCc1ccco1`, in assay [1], the Activity was 68%. Turning to `CCCCCCCCCCCCCCCCCc1ccco1` [2-(HEPTADECYL)FURAN], the Activity in assay [1] was 95%. For the same compound, in assay [3], the LC50 was determined as 1206 µg/g.

Take `CCCCCCCCCCCCCCCc1ccco1`: in assay [1], the Activity was 93%. In assay [3], this compound yielded an LC50 of 1031 µg/g.
